# Source: US20260152497A1, “MIDAZO[4,5-c]QUINOLINE-4-AMINE COMPOUNDS AND CONJUGATES THEREOF, THEIR PREPARATION, AND THEIR [sequence] APPLICATIONS” (SANOFI, priority 2021, published 2026)
# Where two headings read alike, the source gives them in different places.
# Assays:
# [1] = monotherapy, intravenous; cited from earlier work
# human TLR8 = target: T1, human TLR8 (Homo sapiens, UniProt Q9NR97); assay: TLR8 pathway activation, parental HEK-Blue hTLR8 reporter cells (SEAP); type: cell-based; settings: unnumbered table b703
# T1 construct: host or cells: HEK293 (HEK-Blue hTLR8); engineered variant additionally transfected with the CEACAM5 tumor antigen gene
# T1 sequence (Q9NR97 27-1041): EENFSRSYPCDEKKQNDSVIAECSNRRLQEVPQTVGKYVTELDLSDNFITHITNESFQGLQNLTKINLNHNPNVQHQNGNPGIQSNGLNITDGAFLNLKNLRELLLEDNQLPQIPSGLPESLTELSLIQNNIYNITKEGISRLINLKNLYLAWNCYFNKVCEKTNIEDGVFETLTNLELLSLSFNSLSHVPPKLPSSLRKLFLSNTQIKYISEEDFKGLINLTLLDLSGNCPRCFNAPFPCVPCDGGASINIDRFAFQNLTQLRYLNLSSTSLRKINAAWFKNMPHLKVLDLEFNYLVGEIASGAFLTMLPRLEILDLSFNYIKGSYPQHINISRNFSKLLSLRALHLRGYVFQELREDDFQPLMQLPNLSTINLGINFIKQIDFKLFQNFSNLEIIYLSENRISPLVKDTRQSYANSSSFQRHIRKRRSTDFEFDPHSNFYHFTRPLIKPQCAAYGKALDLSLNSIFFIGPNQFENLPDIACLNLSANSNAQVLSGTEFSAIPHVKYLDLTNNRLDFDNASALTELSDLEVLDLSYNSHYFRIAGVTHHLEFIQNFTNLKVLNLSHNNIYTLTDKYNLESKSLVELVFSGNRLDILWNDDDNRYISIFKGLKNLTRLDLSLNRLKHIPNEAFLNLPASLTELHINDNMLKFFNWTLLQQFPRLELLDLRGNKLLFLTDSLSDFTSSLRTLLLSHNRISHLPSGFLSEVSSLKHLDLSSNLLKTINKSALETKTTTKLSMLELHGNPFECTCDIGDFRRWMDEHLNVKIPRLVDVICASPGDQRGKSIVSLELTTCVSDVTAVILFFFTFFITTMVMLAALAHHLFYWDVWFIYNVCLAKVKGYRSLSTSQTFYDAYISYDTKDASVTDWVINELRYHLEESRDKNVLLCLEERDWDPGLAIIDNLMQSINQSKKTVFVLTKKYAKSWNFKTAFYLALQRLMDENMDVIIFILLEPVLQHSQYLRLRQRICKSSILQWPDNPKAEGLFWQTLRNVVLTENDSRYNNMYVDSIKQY
# Excerpt: (§1) HEK-Blue™ hTLR7 Cells (#hkb-htlr7) and HEK-Blue™ hTLR8 Cells (#hkb-htlr8) cells from InvivoGen and the engineered tumor antigen expressing cells were used according to the manufacturer's instructions. The HEK-Blue™ hTLR7 and HEK-Blue™ hTLR8 cells were obtained by co-transfection of the hTLR7 or hTLR8 gene in HEK293 cells and an optimized Secreted Embryonic Alkaline Phosphatase (SEAP) reporter gene which is placed under the control of the IFN-β minimal promoter fused to five NF-κB and AP-1-binding sites. The human tumor antigen expressing HEK-Blue™ hTLR7 and hTLR8 cells were obtained by transfection of the tumor antigen genes in the parental cells followed by a polyclonal selection to enrich in cells overexpressing the tumor antigen. Stimulation with a TLR7/8 ligand activates NF-kB and AP-1 which induce the production of SLAP. The cells are seeded in 96-well plate at 3.10E4 cells/well and incubated 24 hours at 37C, 5% CO2 before adding the conjugates to be evaluated.
# human TLR7 = target: T2, human TLR7 (Homo sapiens, UniProt Q9NYK1); assay: TLR7 pathway activation, parental HEK-Blue hTLR7 reporter cells (SEAP); type: cell-based
# T2 construct: host or cells: HEK293 (HEK-Blue hTLR7); engineered variants additionally transfected with tumor antigen genes
# T2 sequence (Q9NYK1 27-1049): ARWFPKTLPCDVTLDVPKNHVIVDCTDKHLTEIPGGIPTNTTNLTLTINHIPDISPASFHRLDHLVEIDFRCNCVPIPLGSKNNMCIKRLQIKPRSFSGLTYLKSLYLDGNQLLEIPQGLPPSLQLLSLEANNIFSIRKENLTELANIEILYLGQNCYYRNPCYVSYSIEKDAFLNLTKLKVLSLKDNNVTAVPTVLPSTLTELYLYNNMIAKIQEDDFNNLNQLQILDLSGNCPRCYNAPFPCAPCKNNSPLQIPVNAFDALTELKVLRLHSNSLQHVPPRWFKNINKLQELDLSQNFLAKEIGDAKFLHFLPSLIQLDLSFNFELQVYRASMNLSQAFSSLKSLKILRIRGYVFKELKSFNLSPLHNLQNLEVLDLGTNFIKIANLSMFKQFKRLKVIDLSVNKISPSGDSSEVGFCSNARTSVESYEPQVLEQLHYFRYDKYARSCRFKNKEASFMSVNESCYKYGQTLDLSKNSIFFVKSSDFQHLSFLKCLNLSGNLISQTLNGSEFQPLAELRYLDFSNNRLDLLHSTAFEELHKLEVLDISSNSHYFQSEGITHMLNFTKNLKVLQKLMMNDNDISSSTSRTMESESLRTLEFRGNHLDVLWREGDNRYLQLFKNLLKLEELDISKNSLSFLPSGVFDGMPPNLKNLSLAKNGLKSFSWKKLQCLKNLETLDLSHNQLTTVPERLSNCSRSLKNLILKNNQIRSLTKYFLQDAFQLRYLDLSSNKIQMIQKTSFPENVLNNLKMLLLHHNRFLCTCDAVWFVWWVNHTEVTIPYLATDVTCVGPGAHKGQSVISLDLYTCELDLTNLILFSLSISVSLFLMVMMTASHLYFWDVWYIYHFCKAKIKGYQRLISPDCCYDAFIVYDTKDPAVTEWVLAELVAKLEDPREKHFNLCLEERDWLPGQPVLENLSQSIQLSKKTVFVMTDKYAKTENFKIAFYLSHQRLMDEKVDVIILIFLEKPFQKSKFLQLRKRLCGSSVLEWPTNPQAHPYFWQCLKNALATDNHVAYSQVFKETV
# Description: The below tests involving measuring the in vitro activity of some compounds of the disclosure on human TLR7 pathway were carried out using parental HEK-Blue™ hTLR7 cells and engineered tumor antigen-expressing HEK-Blue™ hTLR7 cells respectively as reporter cells.
# as §1, with “evaluated. The cells are subsequently incubated with 3-fold serial dilutions of each of the compounds (0.01 nM to 1 μM) for 96 hours at 37° C., 5% CO2. Next, 20 μL of the supernatant is harvested and incubated with 200 μL of QUANTI-Blue™ Solution.” for “evaluated.”
# [2] = system: NFkB pathway THP1-Dual cells; assay: Stimulation of human THP-1 monocytic cells, THP1-Dual reporter cells (SEAP, NF-kB); type: cell-based
# Description: The compounds/conjugates of formula (II) according to the disclosure were subjected to pharmacological testing for determining their activity on human monocytic cells that express at their membrane surface Fc receptors that show binding specificity for the Fc part of the compounds/conjugates of formula (II). The below tests involving measuring the in vitro activity of some compounds/conjugates of formula (II) of the disclosure were carried out using THP1-Dual™ cells as reporter monocyte cells. […] THP1-Dual™ cells (#thpd-nfis) from InvivoGen were used according to the manufacturer's instructions. The cells were obtained by stable integration of two inducible reporter constructs in human THP-1 monocyte cells: an optimized Secreted Embryonic Alkaline Phosphatase (SEAP) reporter gene which is placed under the control of the IFN-β minimal promoter fused to five NF-κB and three c-Rel binding sites and a Secreted Lucia luciferase gene which is placed under the control of an ISG54 minimal promoter fused with five interferon (IFN)-stimulated response elements. As a result, THP1-Dual™ cells allow to study the activation of the NF-κB pathway by monitoring the activity of SEAP, and the interferon regulatory factor pathway, by assessing the activity of Lucia luciferase.
# [3] = target: Fc receptors at the membrane surface of human THP-1 monocytic cells; assay: cell-based or functional assay
# human MKN-45 tumor cells = assay: Incucyte Immune Cell Killing Assay, co-culture of human PBMC and NucLight red-labelled MKN-45 tumor cells; type: cell-based; settings: 10 nM, 120-hour incubation, PBMC + MKN-45 co-culture
# Description: The conjugates according to the disclosure were subjected to pharmacological testing for determining their tumor cell killing activity via immune cell activation.
# The below tests involving measuring the in vitro tumor cell killing activity of some compounds of the disclosure were carried out using Incucyte® Immune Cell Killing Assay consisting in co-culture of human peripheral blood mononuclear cells (PBMC) and NucLight red-labelled human MKN-45 tumor cells. This Immune Cell Killing Assay allows for direct, measurements of immune cell-mediated killing of MKN-45 tumor cells with the combination of real-time, automated analysis of tumor cell number.
# MKN-45 (stomach tumor cell line, DSMZ Germany) were used as they present a very high expression of CEACAM5 (Antigen Binding Capacity ≈3.10E5 receptors per cell). To count living MKN-45 cells in real time without altering their function, MKN45 cells have been stained thanks to a lentiviral-based labeling reagent enabling expression of a nuclear-restricted red (Nuclight Red) fluorescent protein. […]
# The plates were then placed in the Incucyte® live-cell analysis apparatus. The Incucyte® Cell-by-Cell Analysis module was used to quantify the number of NucLight red-labelled MKN-45 tumor cells over-time. […]
# human CEACAM5 (human) = human CEACAM5 (human) (UniProt P06731); assay: cell-based or functional assay
# [4] = Table 1a, 96 hours, read-out: EC50 HEKBlue-hTLR7
# [5] = Homo sapiens, THP1-Dual, Table 6, reference ligands
# Sequence of human CEACAM5 (human) (P06731 35-685 limits assumed): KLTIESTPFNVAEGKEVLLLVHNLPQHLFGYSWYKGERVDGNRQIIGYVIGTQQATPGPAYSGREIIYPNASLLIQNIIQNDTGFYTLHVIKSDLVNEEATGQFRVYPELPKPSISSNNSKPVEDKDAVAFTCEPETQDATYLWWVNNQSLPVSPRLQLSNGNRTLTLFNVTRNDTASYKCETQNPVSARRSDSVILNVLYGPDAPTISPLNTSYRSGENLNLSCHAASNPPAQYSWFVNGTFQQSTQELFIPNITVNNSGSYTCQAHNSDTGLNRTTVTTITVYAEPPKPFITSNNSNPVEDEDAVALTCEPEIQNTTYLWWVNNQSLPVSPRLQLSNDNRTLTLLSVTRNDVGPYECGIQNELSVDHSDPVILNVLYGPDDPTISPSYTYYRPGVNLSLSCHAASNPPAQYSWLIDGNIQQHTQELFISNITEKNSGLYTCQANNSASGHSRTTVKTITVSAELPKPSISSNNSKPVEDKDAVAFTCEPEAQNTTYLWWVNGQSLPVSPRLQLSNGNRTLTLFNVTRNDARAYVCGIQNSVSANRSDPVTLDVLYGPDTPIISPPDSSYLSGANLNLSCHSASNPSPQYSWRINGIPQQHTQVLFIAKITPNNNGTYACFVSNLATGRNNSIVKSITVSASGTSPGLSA
compound,measurement,setting,value
CCOCc1nc2c(N)nc3ccccc3c2n1CC(C)(C)O.O=S(=O)(O)O [BDB-001],"treatment-related adverse events, share of the enrolled patients",[1],around 78%
"CCOCc1nc2c(N)nc3ccccc3c2n1CC(C)(C)N [Example 3M012, 1-(2-amino-2-methylpropyl)-2-(ethoxymethyl)-1H-imidazo[4,5-c]quinolin-4-amine, reference compound]",EC50,human TLR8,2540 nM
same,EC50,human TLR7; [4],518 nM
same,EC50,"human TLR7; unnumbered table b703, read-out: EC50 on HEK-Blue ™ hTLR7 cells",518 nM
"CCOCc1nc2c(N)nc3ccccc3c2n1CC(C)(C)O [Example R848, 4-amino-2-(ethoxymethyl)-alpha, alpha-dimethyl-1H-imidazo(4,5-c)quinoline-1-ethanol, reference compound]",EC50,[2]; [5],212 nM
same,EC50,"[2]; Homo sapiens, THP1-Dual, Table 7b, 96 hours",238 nM
"CCNCc1nc2c(N)nc3ccccc3c2n1CC(C)(C)O [Gardiquimod, reference compound]",EC50,[2]; [5],> 4000 nM
"CCCN(CCC)C(=O)C1=Cc2ccc(-c3ccc(C(=O)N4CCCC4)cc3)cc2N=C(N)C1 [Motolimod, reference compound]",EC50,[2]; [5],394 nM
CEACAM5_Tusamitamab-PEG4-R848 ADC (Example 2) (antibody),EC50 NFkB pathway THP1-Dual cells,[3],0.8 nM
CEACAM5_Tusamitamab-PEG4-R848 ADC [Example 2],EC50,"[2]; Table 7a, 96 hours",0.8 nM
CEACAM5_Tusamitamab-PEG8-R848 ADC (Example 8) (antibody),EC50 NFkB pathway THP1-Dual cells,[3],1.9 nM
CEACAM5_Tusamitamab-PEG8-R848 ADC [Example 8],EC50,"[2]; Table 7a, 96 hours",1.9 nM
CEACAM5_Tusamitamab-PEG12-R848 ADC (Example 14) (antibody),EC50 NFkB pathway THP1-Dual cells,[3],2.8 nM
CEACAM5_Tusamitamab-PEG12-R848 ADC [Example 14],EC50,"[2]; Table 7a, 96 hours",2.8 nM
CEACAM5_Tusamitamab-PEG24-R848,% of Immune cell-mediated killing activity,human MKN-45 tumor cells,57%
CEACAM5_Tusamitamab-PEG24-R848 ADC (Example 20a) (antibody),EC50 NFkB pathway THP1-Dual cells,[3],0.9 nM
CEACAM5_Tusamitamab-PEG24-R848 ADC [Example 20a],EC50,"[2]; Table 7a, 96 hours",0.9 nM
CEACAM5_Tusamitamab_E152C_S375C-PEG24-R848 ADC [Example 43],EC50,"[2]; Table 7b, 96 hours",2 nM
same,EC50,"human TLR7; Table 1c, 96 hours, read-out: EC50 HEKBlue-hTLR7",> 1000 nM
EGFR_cetuximab-PEG24-R848 ADC [Example 23],EC50,human TLR7; [4],> 1000 nM
Irrelevant human IgG1 (antibody),"Internalized fluorescent intensity (Median) on HEKBlue-hTLR7-CEACAM5, 4 hours",human CEACAM5 (human),144
same,"Internalized fluorescent intensity (Median) on HEKBlue-hTLR7-CEACAM5, 24 hours",human CEACAM5 (human),525
same,"Internalized fluorescent intensity (Median) on HEKBlue-hTLR7-CEACAM5, 48 hours",human CEACAM5 (human),738
same,"Internalized fluorescent intensity (Median) on HEKBlue-hTLR7-CEACAM5, 72 hours",human CEACAM5 (human),833
same,"Internalized fluorescent intensity (Median) on HEKBlue-hTLR8-CEACAM5, 4 hours",human CEACAM5 (human),68
same,"Internalized fluorescent intensity (Median) on HEKBlue-hTLR8-CEACAM5, 24 hours",human CEACAM5 (human),120
same,"Internalized fluorescent intensity (Median) on HEKBlue-hTLR8-CEACAM5, 48 hours",human CEACAM5 (human),151
same,"Internalized fluorescent intensity (Median) on HEKBlue-hTLR8-CEACAM5, 72 hours",human CEACAM5 (human),167
